Data: US20250195536A1, “BICYCLOOCTANE KRAS INHIBITORS” (Incyte Corporation, priority 2023, published 2025)

Experiments:
KRAS G12D = KRAS G12D (Homo sapiens, UniProt P01116, G12D); assay: GDP-GTP exchange assay (KRAS G12D); format: biochemical; details: bodipy-GDP/GppNHp exchange with SOS1; 4 h pre-incubation, 2 h reaction;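 also: one dagger IC50 up to 100 nM and two daggers above 100 nM up to 1 μM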
Procedure, shortened: (§1)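 IC50 came from a four-parameter fit of fluorescence loss (485/520 nm) as SOS1 (150 nM) swapped bodipy-GDP for GppNHp (500 μM) on 2.5 nM KRAS, final concentrations. Compounds were pre-incubated 4 h at r.t. (pH 7.5 Hepes, 10 mM MgCl2); exchange ran 2 h (G12D) or 3 h (G12V).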

KRAS G12V = KRAS G12V (Homo sapiens, UniProt P01116, G12V); assay: GDP-GTP exchange assay (KRAS G12V); format: biochemical; details: bodipy-GDP/GppNHp exchange with SOS1; 3 h incubation after GppNHp-SOS1;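 also: one dagger IC50 up to 100 nM and two daggers above 100 nM up to 1 μM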
KRAS G12V, sequence (P01116 1-188 isoform P01116-2 G12V): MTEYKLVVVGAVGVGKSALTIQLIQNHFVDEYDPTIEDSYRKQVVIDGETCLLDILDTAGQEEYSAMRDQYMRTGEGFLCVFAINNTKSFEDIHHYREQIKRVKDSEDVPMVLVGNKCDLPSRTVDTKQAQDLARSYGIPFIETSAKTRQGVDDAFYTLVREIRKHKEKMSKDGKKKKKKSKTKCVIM
Procedure, shortened: as §1

[1] = Caco2 assay (permeability, Papp A-B); format: in vitro ADME; details: human, Caco-2, absorptive direction (A-B), 50 μM test compound, 4% BSA in receiver
Procedure, shortened: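 Absorptive (A-B) Papp: 50 μM test compound in HBSS added to apical side of 22-25-day Caco-2 monolayers (TEER 300 Ω·cm^2), receiver buffer containing 4% BSA. After 120 min at 37 °C, 5% CO2, both sides analysed by LCMS; Papp calculated from flux rate normalized to area and donor amount.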

KRAS G12D, sequence (P01116 1-188 isoform P01116-2 G12D): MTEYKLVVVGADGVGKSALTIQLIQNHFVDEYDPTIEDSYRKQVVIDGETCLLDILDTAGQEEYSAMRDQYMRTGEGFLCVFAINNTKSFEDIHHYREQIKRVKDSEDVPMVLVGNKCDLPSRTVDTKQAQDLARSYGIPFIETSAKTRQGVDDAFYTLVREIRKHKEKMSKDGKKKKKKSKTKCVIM

Cc1nc2c(F)c(-c3cccc(Cl)c3Cl)c(CCC#N)cc2c2c1cc([C@H]1[C@H]3C[C@H](CN(c4cnsc4)C3)N1C(=O)C1CC1)n2[C@H]1[C@H]2CN[C@@H]1C2 (atropisomer, axis not shown; (Ra)) [Example 104, 3-((Ra)-1-((1R,4R,5S)-2-azabicyclo[2.1.1]hexan-5-yl)-2-((1S,5R,7R)-6-(cyclopropanecarbonyl)-3-(isothiazol-4-yl)-3,6-diazabicyclo[3.2.1]octan-7-yl)-7-(2,3-dichlorophenyl)-6-fluoro-4-methyl-1H-pyrrolo[3,2-c]quinolin-8-yl)propanenitrile]
G12D_exchange (KRAS_G12D exchange assay IC50) (KRAS G12D): †
G12V_exchange (KRAS_G12V exchange assay IC50) (KRAS G12V): †
Papp A→B at 120 min, 50 μM [1]: ≤ 0.5 ×10⁻⁶ cm/s

Cc1nc2c(F)c(-c3cccc(Cl)c3Cl)c(CCC#N)cc2c2c1cc([C@H]1[C@H]3C[C@H](CN(c4nccc(C(F)F)n4)C3)N1C(=O)C1CC1)n2[C@H]1[C@H]2CN[C@@H]1C2 (atropisomer, axis not shown; (Ra)) [Example 87, 3-((Ra)-1-((1R,4R,5S)-2-azabicyclo[2.1.1]hexan-5-yl)-2-((1S,5R,7R)-6-(cyclopropanecarbonyl)-3-(4-(difluoromethyl)pyrimidin-2-yl)-3,6-diazabicyclo[3.2.1]octan-7-yl)-7-(2,3-dichlorophenyl)-6-fluoro-4-methyl-1H-pyrrolo[3,2-c]quinolin-8-yl)propanenitrile]
G12D_exchange (KRAS_G12D exchange assay IC50) (KRAS G12D): †
G12V_exchange (KRAS_G12V exchange assay IC50) (KRAS G12V): †
Papp A→B at 120 min, 50 μM [1]: ≤ 0.5 ×10⁻⁶ cm/s

Cc1c(N2C[C@@H]3C[C@H](C2)N(C(=O)C2CC2)[C@H]3c2cc3c(C)nc4c(F)c(-c5cccc(Cl)c5Cl)c(CCC#N)cc4c3n2[C@H]2[C@H]3CN[C@@H]2C3)ccnc1F (atropisomer, axis not shown; (Ra)) [Example 76, 3-((Ra)-1-((1R,4R,5S)-2-azabicyclo[2.1.1]hexan-5-yl)-2-((1S,5R,7R)-6-(cyclopropanecarbonyl)-3-(2-fluoro-3-methylpyridin-4-yl)-3,6-diazabicyclo[3.2.1]octan-7-yl)-7-(2,3-dichlorophenyl)-6-fluoro-4-methyl-1H-pyrrolo[3,2-c]quinolin-8-yl)propanenitrile]
G12D_exchange (KRAS_G12D exchange assay IC50) (KRAS G12D): †
G12V_exchange (KRAS_G12V exchange assay IC50) (KRAS G12V): †
Papp A→B at 120 min, 50 μM [1]: 0.5 to 1 ×10⁻⁶ cm/s

Cc1nc2c(F)c(-c3cccc(Cl)c3Cl)c(CCC#N)cc2c2c1cc([C@H]1[C@H]3C[C@H](CN(c4cn(C)nc4C(F)(F)F)C3)N1C(=O)C1CC1)n2[C@H]1[C@H]2CN[C@@H]1C2 (atropisomer, axis not shown; (Ra)) [Example 29, 3-((Ra)-1-((1R,4R,5S)-2-azabicyclo[2.1.1]hexan-5-yl)-2-((1S,5R,7R)-6-(cyclopropanecarbonyl)-3-(1-methyl-3-(trifluoromethyl)-1H-pyrazol-4-yl)-3,6-diazabicyclo[3.2.1]octan-7-yl)-7-(2,3-dichlorophenyl)-6-fluoro-4-methyl-1H-pyrrolo[3,2-c]quinolin-8-yl)propanenitrile]
G12D_exchange (KRAS_G12D exchange assay IC50) (KRAS G12D): †
G12V_exchange (KRAS_G12V exchange assay IC50) (KRAS G12V): †
Papp A→B at 120 min, 50 μM [1]: ≤ 0.5 ×10⁻⁶ cm/s

Cc1nc2c(F)c(-c3cccc(Cl)c3Cl)c(CCC#N)cc2c2c1cc(C1C3CC(CN(C)C3=O)N1C(=O)C1CC1)n2C1C2CNC1C2 (atropisomer, axis not shown; (Ra)) [Example 112, 3-((Ra)-1-((1R,4R,5S)-2-Azabicyclo[2.1.1]hexan-5-yl)-2-((1R,5R,7R)-6-(cyclopropanecarbonyl)-3-methyl-2-oxo-3,6-diazabicyclo[3.2.1]octan-7-yl)-7-(2,3-dichlorophenyl)-6-fluoro-4-methyl-1H-pyrrolo[3,2-c]quinolin-8-yl)propanenitrile]
G12D_exchange (KRAS_G12D exchange assay IC50) (KRAS G12D): ††
G12V_exchange (KRAS_G12V exchange assay IC50) (KRAS G12V): †
Papp A→B at 120 min, 50 μM [1]: ≤ 0.5 ×10⁻⁶ cm/s

COc1cccnc1N1C[C@@H]2C[C@H](C1)N(C(=O)C1CC1)[C@H]2c1cc2c(C)nc3c(F)c(-c4cccc(Cl)c4Cl)c(CCC#N)cc3c2n1[C@H]1[C@H]2CN[C@@H]1C2 (atropisomer, axis not shown; (Ra)) [Example 49, 3-((Ra)-1-((1R,4R,5S)-2-azabicyclo[2.1.1]hexan-5-yl)-2-((1S,5R,7R)-6-(cyclopropanecarbonyl)-3-(3-methoxypyridin-2-yl)-3,6-diazabicyclo[3.2.1]octan-7-yl)-7-(2,3-dichlorophenyl)-6-fluoro-4-methyl-1H-pyrrolo[3,2-c]quinolin-8-yl)propanenitrile]
G12D_exchange (KRAS_G12D exchange assay IC50) (KRAS G12D): †
G12V_exchange (KRAS_G12V exchange assay IC50) (KRAS G12V): †
Papp A→B at 120 min, 50 μM [1]: ≤ 0.5 ×10⁻⁶ cm/s

Cc1nc2c(F)c(-c3cccc(Cl)c3Cl)c(CCC#N)cc2c2c1cc([C@H]1[C@H]3C[C@H](CN(c4cccnc4)C3)N1C(=O)C1CC1)n2[C@H]1[C@H]2CN[C@@H]1C2 (atropisomer, axis not shown; (Ra)) [Example 9, 3-((Ra)-1-((1R,4R,5S)-2-azabicyclo[2.1.1]hexan-5-yl)-2-((1S,5R,7R)-6-(cyclopropanecarbonyl)-3-(pyridin-3-yl)-3,6-diazabicyclo[3.2.1]octan-7-yl)-7-(2,3-dichlorophenyl)-6-fluoro-4-methyl-1H-pyrrolo[3,2-c]quinolin-8-yl)propanenitrile]
G12D_exchange (KRAS_G12D exchange assay IC50) (KRAS G12D): †
G12V_exchange (KRAS_G12V exchange assay IC50) (KRAS G12V): †
Papp A→B at 120 min, 50 μM [1]: ≤ 0.5 ×10⁻⁶ cm/s

COC(=O)N1C[C@@H]2C[C@H](C1)N(C(=O)C1CC1)[C@H]2c1cc2c(C)nc3c(F)c(-c4cccc(Cl)c4Cl)c(CCC#N)cc3c2n1[C@H]1[C@H]2CN[C@@H]1C2 (atropisomer, axis not shown; (Ra)) [Example 108, Methyl (1 S,5R,7R)-7-((Ra)-1-((1R,4R,5S)-2-azabicyclo[2.1.1]hexan-5-yl)-8-(2-cyanoethyl)-7-(2,3-dichlorophenyl)-6-fluoro-4-methyl-1H-pyrrolo[3,2-c]quinolin-2-yl)-6-(cyclopropanecarbonyl)-3,6-diazabicyclo[3.2.1]octane-3-carboxylate]
G12D_exchange (KRAS_G12D exchange assay IC50) (KRAS G12D): †
G12V_exchange (KRAS_G12V exchange assay IC50) (KRAS G12V): †
Papp A→B at 120 min, 50 μM [1]: ≤ 0.5 ×10⁻⁶ cm/s

Cc1nc2c(F)c(-c3cccc(Cl)c3Cl)c(CCC#N)cc2c2c1cc([C@H]1[C@H]3C[C@H](CN(c4cccc(C(F)(F)F)c4)C3)N1C(=O)C1CC1)n2[C@H]1[C@H]2CN[C@@H]1C2 (atropisomer, axis not shown; (Ra)) [Example 10, 3-((Ra)-1-((1R,4R,5S)-2-azabicyclo[2.1.1]hexan-5-yl)-2-((1S,5R,7R)-6-(cyclopropanecarbonyl)-3-(3-(trifluoromethyl)phenyl)-3,6-diazabicyclo[3.2.1]octan-7-yl)-7-(2,3-dichlorophenyl)-6-fluoro-4-methyl-1H-pyrrolo[3,2-c]quinolin-8-yl)propanenitrile]
G12D_exchange (KRAS_G12D exchange assay IC50) (KRAS G12D): ††
G12V_exchange (KRAS_G12V exchange assay IC50) (KRAS G12V): †
Papp A→B at 120 min, 50 μM [1]: ≤ 0.5 ×10⁻⁶ cm/s

Cc1nc2c(F)c(-c3cccc(Cl)c3Cl)c(CCC#N)cc2c2c1cc([C@H]1[C@@H]3COC[C@@H](C3)N1C(=O)C1CC1)n2[C@H]1[C@H]2CN[C@@H]1C2 (atropisomer, axis not shown; (Ra)) [Example 115, 3-((Ra)-1-((1R,4R,5S)-2-Azabicyclo[2.1.1]hexan-5-yl)-2-((1R,5R,7R)-6-(cyclopropanecarbonyl)-3-oxa-6-azabicyclo[3.2.1]octan-7-yl)-7-(2,3-dichlorophenyl)-6-fluoro-4-methyl-1H-pyrrolo[3,2-c]quinolin-8-yl)propanenitrile]
G12D_exchange (KRAS_G12D exchange assay IC50) (KRAS G12D): †
G12V_exchange (KRAS_G12V exchange assay IC50) (KRAS G12V): †
Papp A→B at 120 min, 50 μM [1]: ≤ 0.5 ×10⁻⁶ cm/s

Cc1ncnc(N2C[C@@H]3C[C@H](C2)N(C(=O)C2CC2)[C@H]3c2cc3c(C)nc4c(F)c(-c5cccc(Cl)c5Cl)c(CCC#N)cc4c3n2[C@H]2[C@H]3CN[C@@H]2C3)c1F (atropisomer, axis not shown; (Ra)) [Example 31, 3-((Ra)-1-((1R,4R,5S)-2-Azabicyclo[2.1.1]hexan-5-yl)-2-((1 S,5R,7R)-6-(cyclopropanecarbonyl)-3-(5-fluoro-6-methylpyrimidin-4-yl)-3,6-diazabicyclo[3.2.1]octan-7-yl)-7-(2,3-dichlorophenyl)-6-fluoro-4-methyl-1H-pyrrolo[3,2-c]quinolin-8-yl)propanenitrile]
G12D_exchange (KRAS_G12D exchange assay IC50) (KRAS G12D): †
G12V_exchange (KRAS_G12V exchange assay IC50) (KRAS G12V): †
Papp A→B at 120 min, 50 μM [1]: ≤ 0.5 ×10⁻⁶ cm/s

Cc1nc2c(F)c(-c3cccc(Cl)c3Cl)c(CCC#N)cc2c2c1cc([C@H]1[C@H]3C[C@H](CN(c4ncc(OC(F)F)cn4)C3)N1C(=O)C1CC1)n2[C@H]1[C@H]2CN[C@@H]1C2 (atropisomer, axis not shown; (Ra)) [Example 45, 3-((Ra)-1-((1R,4R,5S)-2-azabicyclo[2.1.1]hexan-5-yl)-2-((1S,5R,7R)-6-(cyclopropanecarbonyl)-3-(5-(difluoromethoxy)pyrimidin-2-yl)-3,6-diazabicyclo[3.2.1]octan-7-yl)-7-(2,3-dichlorophenyl)-6-fluoro-4-methyl-1H-pyrrolo[3,2-c]quinolin-8-yl)propanenitrile]
G12D_exchange (KRAS_G12D exchange assay IC50) (KRAS G12D): †
G12V_exchange (KRAS_G12V exchange assay IC50) (KRAS G12V): †
Papp A→B at 120 min, 50 μM [1]: ≤ 0.5 ×10⁻⁶ cm/s
